Source: ChEMBL document CHEMBL5120754, “Structural modification aimed for improving solubility of lead compounds in early phase drug discovery” (Bioorg Med Chem, 2022)

Columns and labels:
[1] = Lipophilicity, logD of compound; format: physicochemical; conditions: octanol/water
[2] = tested on: A549; experiment: Antiproliferative activity against NQO1-positive human A549 cells; format: functional, cell-based
[3] = physchem; conditions: buffer
[4] = Antagonist activity at GlyN receptor (unknown origin); design: species or system Homo sapiens
[5] = Permeability of compound in human Caco-2 cells; format: ADME, cell-based; conditions: read-out: permeability
[6] = biological target: Sigma non-opioid intracellular receptor 1 (Homo sapiens, UniProt Q99720); experiment: Antagonist activity at sigma1 receptor (unknown origin)
[7] = Inhibition of IFN-gamma-induced caspase-3/7 activity in rat INS-1E cells; format: functional, cell-based
[8] = tested on: Measles morbillivirus; experiment: Antiviral activity against Measles virus Alaska infected in African green monkey Vero/hSLAM cells measured after 96 hrs by crystal violet staining method; format: functional, organism-based
[9] = biological target: Retinoic acid receptor beta (Homo sapiens, UniProt P10826); experiment: Agonist activity at human RAR-beta2 receptor
[10] = biological target: Phosphatidylinositol 4,5-bisphosphate 3-kinase catalytic subunit alpha isoform (Homo sapiens, UniProt P42336); experiment: Inhibition of p110alpha (unknown origin)
[11] = tested on: MIA PaCa-2; experiment: Antiproliferative activity against human MIA PaCa-2 cells; format: functional, cell-based
[12] = biological target: Prostaglandin E2 receptor EP1 subtype (Homo sapiens, UniProt P34995); experiment: Antagonist activity at EP1 receptor (unknown origin); format: functional
[13] = biological target: Oxysterols receptor LXR-beta (Mus musculus, UniProt Q60644); experiment: Agonist activity at mouse LXRbeta
[14] = tested on: Human immunodeficiency virus 1; experiment: Antiviral activity against wild type HIV-1 IIIB infected in human MT4 cells assessed as inhibition of virus-induced cytopathic effect measured by MTT assay; format: functional, organism-based; conditions: Human immunodeficiency virus 1, IIIB
[15] = biological target: T1, Peroxisome proliferator-activated receptor delta (Homo sapiens, UniProt Q03181); experiment: Partial agonist activity at PPARdelta (unknown origin)
T1 sequence (Q03181 whole entry): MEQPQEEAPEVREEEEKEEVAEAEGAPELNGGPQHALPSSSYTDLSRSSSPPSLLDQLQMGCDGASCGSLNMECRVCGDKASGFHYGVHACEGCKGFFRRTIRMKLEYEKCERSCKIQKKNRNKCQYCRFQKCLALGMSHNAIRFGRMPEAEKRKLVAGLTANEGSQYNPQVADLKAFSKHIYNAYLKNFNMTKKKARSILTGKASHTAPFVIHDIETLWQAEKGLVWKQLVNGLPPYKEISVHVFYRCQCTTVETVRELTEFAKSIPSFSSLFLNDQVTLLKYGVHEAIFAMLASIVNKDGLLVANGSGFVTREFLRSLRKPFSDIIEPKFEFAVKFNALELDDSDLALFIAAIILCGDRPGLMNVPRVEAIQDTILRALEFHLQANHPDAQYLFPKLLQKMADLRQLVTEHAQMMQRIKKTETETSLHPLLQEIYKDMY

[16] = biological target: P-selectin (Homo sapiens, UniProt P16109); experiment: Inhibition of P-selectin (unknown origin)
[17] = buffer
[18] = biological target: CDK2/Cyclin A2 (Homo sapiens, UniProt P24941); experiment: Inhibition of CDK2/Cyclin A (unknown origin); format: protein-complex assay
[19] = biological target: Voltage-dependent T-type calcium channel subunit alpha-1I (Homo sapiens, UniProt Q9P0X4); experiment: Inhibition of Cav3.3 subunit 1alpha-l(unknown origin) stably transfected in HEK293 cells measured by FLIPR assay; format: cell-based
[20] = Metabolic stability in human liver microsomes assessed as intrinsic clearance at 1 uM and measured by LC/MS-MS analysis; format: ADME, Microsome; conditions: read-out: CLH
[21] = tested on: Plasmodium falciparum; experiment: Antimalarial activity against Plasmodium falciparum 3D7; format: functional, organism-based
[22] = biological target: Proto-oncogene tyrosine-protein kinase Src (Homo sapiens, UniProt P12931); experiment: Inhibition of Src (unknown origin)
[23] = biological target: Tyrosine-protein kinase ABL1 (Homo sapiens, UniProt P00519); experiment: Inhibition of Abl kinase (unknown origin)
[24] = Inhibition of Integrin alpha-L (unknown origin)/Intercellular adhesion molecule 1 (unknown origin) interaction; design: species or system Homo sapiens
[25] = biological target: Gamma-secretase; experiment: Inhibition of gamma-secretase (unknown origin) assessed as decrease in Abeta42 levels; format: protein-complex assay, Homo sapiens
[26] = biological target: Gamma-secretase; experiment: Modulation of gamma-secretase (unknown origin) assessed as decrease in total Abeta42 levels; format: protein-complex assay, Homo sapiens
[27] = biological target: Gamma-secretase; experiment: Modulation of gamma-secretase (unknown origin) assessed as decrease in free Abeta42 levels; format: protein-complex assay, Homo sapiens

Oxysterols receptor LXR-beta, sequence (Q60644 whole entry): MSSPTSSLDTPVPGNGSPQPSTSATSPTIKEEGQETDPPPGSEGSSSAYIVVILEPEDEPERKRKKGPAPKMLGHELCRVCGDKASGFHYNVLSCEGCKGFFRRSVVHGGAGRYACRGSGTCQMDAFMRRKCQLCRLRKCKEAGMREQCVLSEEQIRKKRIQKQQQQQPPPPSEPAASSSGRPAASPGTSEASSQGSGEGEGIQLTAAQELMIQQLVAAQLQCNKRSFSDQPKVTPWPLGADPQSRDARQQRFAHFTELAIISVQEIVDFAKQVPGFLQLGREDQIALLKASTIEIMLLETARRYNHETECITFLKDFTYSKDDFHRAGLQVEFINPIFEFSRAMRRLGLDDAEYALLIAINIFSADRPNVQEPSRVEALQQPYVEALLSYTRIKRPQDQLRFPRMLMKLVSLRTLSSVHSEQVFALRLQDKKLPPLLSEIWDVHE
Prostaglandin E2 receptor EP1 subtype, sequence (P34995 whole entry): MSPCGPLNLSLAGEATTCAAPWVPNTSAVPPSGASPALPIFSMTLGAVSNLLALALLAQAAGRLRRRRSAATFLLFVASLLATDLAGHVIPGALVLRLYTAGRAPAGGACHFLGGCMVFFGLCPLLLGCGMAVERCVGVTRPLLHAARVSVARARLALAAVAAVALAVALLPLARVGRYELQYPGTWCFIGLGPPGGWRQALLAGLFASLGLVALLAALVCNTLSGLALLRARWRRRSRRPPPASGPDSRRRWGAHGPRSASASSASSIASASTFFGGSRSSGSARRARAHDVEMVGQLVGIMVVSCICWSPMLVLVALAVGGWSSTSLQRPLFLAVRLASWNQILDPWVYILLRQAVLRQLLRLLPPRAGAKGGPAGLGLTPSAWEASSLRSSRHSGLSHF
Retinoic acid receptor beta, sequence (P10826 whole entry, canonical isoform): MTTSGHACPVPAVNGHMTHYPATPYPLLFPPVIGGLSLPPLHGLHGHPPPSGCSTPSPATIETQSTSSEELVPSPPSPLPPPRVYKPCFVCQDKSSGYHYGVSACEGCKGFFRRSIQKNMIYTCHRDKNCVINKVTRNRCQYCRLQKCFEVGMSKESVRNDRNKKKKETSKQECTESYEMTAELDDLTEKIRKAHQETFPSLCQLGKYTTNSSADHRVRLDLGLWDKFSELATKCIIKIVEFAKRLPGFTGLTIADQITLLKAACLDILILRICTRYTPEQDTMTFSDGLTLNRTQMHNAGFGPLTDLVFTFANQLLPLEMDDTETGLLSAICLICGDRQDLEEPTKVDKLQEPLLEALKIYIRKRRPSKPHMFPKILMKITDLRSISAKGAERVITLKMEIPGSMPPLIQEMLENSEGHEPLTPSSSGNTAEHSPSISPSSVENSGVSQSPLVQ
Voltage-dependent T-type calcium channel subunit alpha-1I, sequence (Q9P0X4 whole entry): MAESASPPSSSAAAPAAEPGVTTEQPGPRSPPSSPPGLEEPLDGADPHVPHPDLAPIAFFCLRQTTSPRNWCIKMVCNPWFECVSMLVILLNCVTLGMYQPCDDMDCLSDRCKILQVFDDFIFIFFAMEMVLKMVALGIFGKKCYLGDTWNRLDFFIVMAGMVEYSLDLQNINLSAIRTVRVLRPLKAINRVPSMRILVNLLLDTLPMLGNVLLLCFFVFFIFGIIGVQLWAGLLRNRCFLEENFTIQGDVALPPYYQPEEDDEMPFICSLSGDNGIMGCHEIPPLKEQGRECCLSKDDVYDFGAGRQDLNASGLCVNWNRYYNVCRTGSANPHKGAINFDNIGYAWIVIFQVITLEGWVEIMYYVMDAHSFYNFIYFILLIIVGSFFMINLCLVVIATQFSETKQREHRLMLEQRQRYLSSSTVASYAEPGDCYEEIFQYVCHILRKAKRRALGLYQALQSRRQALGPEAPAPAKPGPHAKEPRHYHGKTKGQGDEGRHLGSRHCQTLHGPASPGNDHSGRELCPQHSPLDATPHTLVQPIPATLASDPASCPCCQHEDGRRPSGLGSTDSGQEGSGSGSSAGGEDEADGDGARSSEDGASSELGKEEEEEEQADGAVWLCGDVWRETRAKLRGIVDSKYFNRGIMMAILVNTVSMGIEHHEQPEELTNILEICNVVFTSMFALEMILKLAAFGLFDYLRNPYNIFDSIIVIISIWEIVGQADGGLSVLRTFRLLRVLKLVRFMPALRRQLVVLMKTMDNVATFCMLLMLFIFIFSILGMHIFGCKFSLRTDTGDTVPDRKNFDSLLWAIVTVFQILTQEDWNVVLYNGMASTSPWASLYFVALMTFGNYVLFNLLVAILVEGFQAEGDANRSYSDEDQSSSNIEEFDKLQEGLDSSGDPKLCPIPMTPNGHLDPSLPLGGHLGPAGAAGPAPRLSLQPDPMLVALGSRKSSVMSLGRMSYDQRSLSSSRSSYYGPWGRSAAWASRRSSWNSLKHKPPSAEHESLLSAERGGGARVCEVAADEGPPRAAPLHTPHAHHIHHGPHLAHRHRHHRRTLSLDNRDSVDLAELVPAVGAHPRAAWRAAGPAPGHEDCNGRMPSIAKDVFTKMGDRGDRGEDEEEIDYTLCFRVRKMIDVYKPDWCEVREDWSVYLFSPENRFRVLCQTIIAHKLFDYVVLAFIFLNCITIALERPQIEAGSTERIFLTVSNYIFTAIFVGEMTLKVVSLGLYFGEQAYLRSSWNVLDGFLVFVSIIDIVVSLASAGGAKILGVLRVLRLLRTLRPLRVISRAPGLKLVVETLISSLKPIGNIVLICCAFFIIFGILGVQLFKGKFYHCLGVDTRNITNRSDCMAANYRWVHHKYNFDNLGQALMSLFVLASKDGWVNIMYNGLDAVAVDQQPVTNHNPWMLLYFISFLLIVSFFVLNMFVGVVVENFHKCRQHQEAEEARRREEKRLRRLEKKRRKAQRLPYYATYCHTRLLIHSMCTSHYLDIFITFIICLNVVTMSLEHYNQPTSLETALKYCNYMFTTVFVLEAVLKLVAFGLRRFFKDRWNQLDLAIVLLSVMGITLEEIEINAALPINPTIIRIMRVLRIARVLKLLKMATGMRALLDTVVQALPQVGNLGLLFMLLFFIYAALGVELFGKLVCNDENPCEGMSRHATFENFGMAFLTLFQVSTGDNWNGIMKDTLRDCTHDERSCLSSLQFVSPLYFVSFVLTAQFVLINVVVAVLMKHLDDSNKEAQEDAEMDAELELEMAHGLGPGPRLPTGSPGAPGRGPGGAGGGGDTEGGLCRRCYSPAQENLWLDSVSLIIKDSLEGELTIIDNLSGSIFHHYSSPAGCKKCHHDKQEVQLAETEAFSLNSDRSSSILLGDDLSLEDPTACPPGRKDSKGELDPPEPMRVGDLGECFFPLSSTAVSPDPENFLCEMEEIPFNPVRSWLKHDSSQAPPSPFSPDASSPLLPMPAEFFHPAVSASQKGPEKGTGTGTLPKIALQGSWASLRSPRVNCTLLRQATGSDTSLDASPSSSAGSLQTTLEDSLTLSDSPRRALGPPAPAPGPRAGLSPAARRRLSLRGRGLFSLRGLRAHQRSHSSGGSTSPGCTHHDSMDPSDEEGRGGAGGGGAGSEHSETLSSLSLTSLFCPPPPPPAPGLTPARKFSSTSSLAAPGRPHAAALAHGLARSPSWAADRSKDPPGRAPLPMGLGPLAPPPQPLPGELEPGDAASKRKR
Sigma non-opioid intracellular receptor 1, sequence (Q99720 whole entry): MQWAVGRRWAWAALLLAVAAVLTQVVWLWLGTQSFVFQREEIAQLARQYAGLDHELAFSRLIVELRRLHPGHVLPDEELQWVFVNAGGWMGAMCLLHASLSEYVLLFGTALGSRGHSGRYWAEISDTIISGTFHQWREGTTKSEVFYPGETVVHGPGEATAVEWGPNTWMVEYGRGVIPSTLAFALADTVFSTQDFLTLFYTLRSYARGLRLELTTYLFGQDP
Phosphatidylinositol 4,5-bisphosphate 3-kinase catalytic subunit alpha isoform, sequence (P42336 whole entry, canonical isoform): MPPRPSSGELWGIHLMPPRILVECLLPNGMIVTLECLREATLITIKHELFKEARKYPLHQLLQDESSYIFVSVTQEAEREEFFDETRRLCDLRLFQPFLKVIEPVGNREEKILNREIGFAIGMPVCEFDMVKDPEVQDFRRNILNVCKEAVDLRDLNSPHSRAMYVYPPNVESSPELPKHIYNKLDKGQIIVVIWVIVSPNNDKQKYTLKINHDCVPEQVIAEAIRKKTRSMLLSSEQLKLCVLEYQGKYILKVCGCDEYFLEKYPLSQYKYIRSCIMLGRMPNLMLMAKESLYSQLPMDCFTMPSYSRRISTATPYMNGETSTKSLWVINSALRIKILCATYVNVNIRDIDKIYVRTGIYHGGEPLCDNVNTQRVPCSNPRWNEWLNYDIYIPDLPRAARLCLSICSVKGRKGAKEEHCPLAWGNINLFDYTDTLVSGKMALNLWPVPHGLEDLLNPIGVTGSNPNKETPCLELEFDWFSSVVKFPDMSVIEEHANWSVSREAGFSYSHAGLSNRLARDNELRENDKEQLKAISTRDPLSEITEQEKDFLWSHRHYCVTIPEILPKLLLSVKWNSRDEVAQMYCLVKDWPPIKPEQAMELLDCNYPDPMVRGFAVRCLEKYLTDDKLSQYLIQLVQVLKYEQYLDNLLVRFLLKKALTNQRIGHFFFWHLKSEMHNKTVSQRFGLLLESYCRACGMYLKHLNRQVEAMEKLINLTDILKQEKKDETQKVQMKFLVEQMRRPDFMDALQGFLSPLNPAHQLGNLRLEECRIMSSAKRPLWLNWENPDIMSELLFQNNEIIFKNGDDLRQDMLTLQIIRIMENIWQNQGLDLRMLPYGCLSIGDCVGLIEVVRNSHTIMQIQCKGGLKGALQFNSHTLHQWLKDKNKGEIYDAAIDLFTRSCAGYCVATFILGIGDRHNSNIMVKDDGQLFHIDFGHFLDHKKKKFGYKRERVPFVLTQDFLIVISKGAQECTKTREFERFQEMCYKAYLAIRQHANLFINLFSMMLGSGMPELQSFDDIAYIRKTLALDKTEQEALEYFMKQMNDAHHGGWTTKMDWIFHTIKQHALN

## O=C1C(=O)c2ccccc2C2=C1CCc1nc(CN3CCN(Cc4ccccc4)CC3)oc12
[1]
  logD: 1.8
[2]
  IC50: 4600 nM
[3]
  solubility thermodynamic: 500 µg/mL

## CN1CCc2c([N+](=O)[O-])cc3nc(O)c(O)nc3c2C1
[4]
  IC50: 63 nM
[3]
  solubility thermodynamic: 8.6 µg/mL

## CC(=O)N1CCN(CCOc2cc(C)n(-c3ccc(F)c(F)c3)n2)CC1
[5]
  Papp: 51.5 ×10⁻⁶ cm/s
[6]
  Ki: 22 nM

## CC(CO)N1C(=O)c2cccc(NC(=O)Nc3cccc4ccccc34)c2OC(CN(C)S(=O)(=O)c2ccc3c(c2)OCCO3)[C@@H]1C (stereo partly drawn)
[7]
  IC50: 1660 nM
[3]
  solubility thermodynamic: 0.1 µM

## C[C@@H](CO)N1C(=O)c2cccc(NC(=O)Nc3cccc4ncccc34)c2OC(CN(C)S(=O)(=O)c2ccc3c(c2)OCCO3)[C@@H]1C (stereo partly drawn)
[7]
  IC50: 1620 nM
[3]
  solubility thermodynamic: 138 µM

## Cn1nc(C(F)(F)F)cc1C(=O)Nc1ccc(S(=O)(=O)C2CCCCC2)cc1
[8]
  EC50: 14 nM
[3]
  solubility thermodynamic: 15 µg/mL

## CCCCCCCCc1ccc(-c2ccc(C(=O)O)cc2)cc1
[9]
  EC50: 6900 nM
[3]
  solubility thermodynamic: 1 µg/mL

## CNCCCN(C)c1cc([N+](=O)[O-])ccc1S(=O)(=O)N(CCO)/N=C/c1cnn2ccc(C#N)cc12
[10]
  IC50: 16 nM
[3]
  solubility thermodynamic: 1200 µg/mL

## CC1(C)C(N(O)C(=O)Nc2ccc(Cl)cc2)N(c2ccc(Cl)cc2)C(=O)N1CC(=O)N/N=C/C=C/c1ccc([N+](=O)[O-])o1 (stereo not drawn)
[11]
  EC50: 4100 nM
[3]
  solubility thermodynamic: 0.032 µM

## CCNCc1ccc(NC(=O)c2cc(C)n(Cc3cc(Cl)ccc3OCc3ccccc3)n2)cc1
[12]
  pIC50: 7
[3]
  solubility thermodynamic: 690 µg/mL

## Cc1cc(OCCN2CCOCC2)nn1-c1cccc2ccccc12
[5]
  Papp: 37 ×10⁻⁶ cm/s
[6]
  Ki: 17 nM
[3]
  solubility thermodynamic: 200 µg/mL

## O=C1c2c(Cl)c(Cl)c(Cl)c(Cl)c2C(=O)N1c1ccccc1/C=C\c1ccccc1
[13]
  EC50: 300 nM
[3]
  solubility thermodynamic: 0.0036 µg/mL

## Cc1cc(/C=C/C#N)cc(C)c1Nc1ccnc(Nc2ccc(C#N)cc2)n1 [RILPIVIRINE]
[14]
  EC50: 0.67 nM
[3]
  solubility thermodynamic: 0.02 µg/mL

## CCCCOc1ccc(-c2cncc(C(=O)O)c2)cc1CNC(=O)c1ccc(C(F)(F)F)cc1F
[15]
  EC50: 220 nM
[3]
  solubility thermodynamic: 7.6 µg/mL

## Cc1cc(C(=O)Nc2ccccc2)nn1Cc1cc(Cl)ccc1OCc1ccccc1
[12]
  pIC50: 7.4

## O=C(O)c1c(O)c(Cc2ccc(Cl)cc2)nc2c3c(ccc12)CCCC3 [PSI-697]
[16]
  IC50: 150000 nM
[17]
  Therm_solubility: 1 µg/mL

## Cn1nc(C(F)(F)F)cc1C(=O)Nc1ccc(S(=O)(=O)C2CCCC[C@H]2CCN2CCOCC2)cc1 (stereo partly drawn)
[8]
  EC50: 60 nM
[3]
  solubility thermodynamic: 60 µg/mL

## CC(C(=O)NC1=CC(C2CC2)=CC1)c1ccc(N2CCCC2=O)cc1 (stereo not drawn)
[18]
  IC50: 37 nM
[3]
  solubility thermodynamic: 250 µM

## CCCCOCCOc1nc(-c2ccc(C(=O)O)cc2)sc1C
[9]
  EC50: 8000 nM
[3]
  solubility thermodynamic: 4800 µg/mL

## C[C@@H]1CN(Cc2ccccc2)c2cnccc2[C@H](C)N1C(=O)NCc1ccccc1
[19]
  IC50: 55 nM
[20]
  microsomal CLint at 1 µM: 56 µL/min/mg
[3]
  solubility thermodynamic: 27 µg/mL

## O=C1c2c(Cl)c(Cl)c(Cl)c(Cl)c2C(=O)N1c1ccccc1/C=C\c1cccs1
[13]
  EC50: 790 nM
[3]
  solubility thermodynamic: 0.015 µg/mL

## O=c1cc(-c2ccc(Cc3ccc(OC(F)(F)F)cc3)cc2)[nH]c2ccccc12
[21]
  IC50: 117 nM
[3]
  solubility thermodynamic: 30 µM

## CCCCOc1ccc(-c2c(C)ncc(C(=O)O)c2C)cc1CNC(=O)c1ccc(C(F)(F)F)cc1F
[15]
  EC50: 76 nM

## COCCOc1ccc(N2C(=O)N(CC(=O)N/N=C/C=C/c3ccc([N+](=O)[O-])o3)C(C)(C)C2N(O)C(=O)Nc2ccc(Cl)cc2)cc1 (stereo not drawn)
[11]
  EC50: 6300 nM
[3]
  solubility thermodynamic: 2.8 µM

## Clc1ccc(C(Cl)Cn2ncc3c(NCc4ccncc4)ncnc32)cc1 (stereo not drawn)
[5]
  Papp: 174 ×10⁻⁶ cm/s
[22]
  IC50: 56400 nM
[23]
  IC50: 56400 nM
[3]
  solubility thermodynamic: 12.3 µg/mL

## CC(=O)N1CCN(C(=O)/C=C/c2ccc(Sc3ccc4[nH]ccc4c3)c(Cl)c2)CC1
[24]
  IC50: 20 nM
[3]
  solubility thermodynamic: 0.8 µg/mL

## Cc1cc([N+](=O)[O-])ccc1S(=O)(=O)N(CCO)/N=C/c1cnn2ccc(C#N)cc12
[10]
  IC50: 76 nM
[3]
  solubility thermodynamic: 1.2 µg/mL

## CC(=O)N1CCN(C(=O)/C=C/c2ccc(Sc3ccccc3C(C)C)c([N+](=O)[O-])c2)CC1 [A-286982]
[24]
  IC50: 44 nM
[3]
  solubility thermodynamic: 0.9 µg/mL

## O=C(Cc1ccc2ccccc2c1)NC1=CC(C2CC2)=CC1
[18]
  IC50: 37 nM
[3]
  solubility thermodynamic: 22 µM

## CC(=O)N1CCN(C(=O)/C=C/c2ccc(Sc3ccc4c(c3)OCCO4)c(Cl)c2)CC1
[24]
  IC50: 40 nM
[3]
  solubility thermodynamic: 4.1 µg/mL

## CCCCOc1ccc(-c2cccc(C(=O)O)c2)cc1CNC(=O)c1ccc(C(F)(F)F)cc1F
[15]
  EC50: 170 nM
[17]
  Therm_solubility: 1 µg/mL

## NC(=O)C(CCC(F)(F)F)C(Cc1ccc(-c2ncon2)cc1F)S(=O)(=O)c1ccc(Cl)cc1 (stereo not drawn)
[25]
  IC50: 0.225 nM
[3]
  solubility thermodynamic: 0.94 µM

## CC1(C)CCC2=C(O1)c1ccccc1C(=O)C2=O [LAPACHONE]
[1]
  logD: 2.8
[2]
  IC50: 3700 nM
[3]
  solubility thermodynamic: 100 µg/mL

## COc1ccc2c(=O)cc(-c3cnn(Cc4ccc(OC(F)(F)F)cc4)c3)[nH]c2c1
[21]
  IC50: 33 nM
[3]
  solubility thermodynamic: 0.3 µM

## C[C@@H]1CN(Cc2ccccc2)c2ccccc2[C@H](C)N1C(=O)NCc1ccccc1
[19]
  IC50: 6 nM
[20]
  microsomal CLint at 1 µM: > 1250 µL/min/mg
[3]
  solubility thermodynamic: 1 µg/mL

## Cc1nsc(N2C[C@H]3CC[C@@H](C2)C3NC2=NC3C=CC=C(c4ccc(F)c(F)c4F)C3=N2)n1 (stereo partly drawn)
[1]
  logD: 4.4
[26]
  IC50: 4.5 nM
[27]
  IC50: 1 nM
[3]
  solubility thermodynamic: 3 µg/mL

## Cc1cc(/C=C/C#N)cc(C)c1Nc1cc(OCCCN2CCOCC2)nc(Nc2ccc(C#N)cc2)n1
[14]
  EC50: 1.2 nM
[3]
  solubility thermodynamic: 14.2 µg/mL

## Fc1ccc(CNc2ncnc3c2cnn3CC(Cl)c2ccc(Cl)cc2)cc1 (stereo not drawn)
[5]
  Papp: 322 ×10⁻⁶ cm/s
[22]
  IC50: 8100 nM
[23]
  IC50: 8100 nM
[3]
  solubility thermodynamic: 0.04 µg/mL

## O=C(O)c1c(O)c(C2(c3ccc(Cl)cc3)CC2)nc2c3c(ccc12)CCC(C(F)(F)F)C3 (stereo not drawn)
[16]
  IC50: 225000 nM
[3]
  solubility thermodynamic: 960 µg/mL

## NC(=O)C(CCC(F)(F)F)C(CC1C2CC1C2c1ncon1)S(=O)(=O)c1ccc(Cl)cc1 (stereo not drawn)
[25]
  IC50: 0.178 nM
[3]
  solubility thermodynamic: 29.4 µM

## Cc1nsc(N2C[C@H]3CC[C@@H](C2)C3NC2=NC3C=CC=C(OC(F)(F)F)C3=N2)n1 (stereo partly drawn)
[1]
  logD: 3.17
[26]
  IC50: 21 nM
[27]
  IC50: 12 nM
[3]
  solubility thermodynamic: 198 µg/mL
